How the values were obtained:
[1] = test system: PANC-1 human pancreatic cancer cells; test: In vitro anti-proliferative effect, CCK-8 method, PANC-1; type: cell-based; conditions: Homo sapiens, PANC-1
How it was run: (§1)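 Percent growth inhibition was read by CCK-8 assay after exposure to two concentrations, 100 μM and 10 μM.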

[2] = test system: A549 human lung cancer cells; test: In vitro anti-proliferative effect, CCK-8 method, A549; type: cell-based; conditions: Homo sapiens, A549
How it was run: as §1

[3] = test system: Hut78 T lymphocytic leukemia cells; test: In vitro anti-proliferative effect, CCK-8 method, Hut78; type: cell-based; conditions: Homo sapiens, HuT78, read-out: Hut-78 (inhibition %)
How it was run: (§2)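 Percent growth inhibition, measured with CCK-8, in Hut78 and K562 leukemia cells at two compound concentrations, 10 μM and 100 μM.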

[4] = test system: K562 human chronic myelogenous leukemia cells; test: In vitro anti-proliferative effect, CCK-8 method, K562; type: cell-based; conditions: Homo sapiens, K562
How it was run: as §2

[5] = test system: Jurkat E6-1 human T-cell lymphoma; test: In vitro anti-proliferative effect, CCK-8 method, Jurkat E6-1; type: cell-based; conditions: Homo sapiens, Jurkat E6.1
How it was run: as §1

[6] = test system: MDA-MB-435s human breast cancer cells; test: In vitro anti-proliferative effect, CCK-8 method, MDA-MB-435s; type: cell-based; conditions: Homo sapiens, MDA-MB-435S
How it was run: as §1

HDAC1 = HDAC1 (Homo sapiens (Human), UniProt Q13547); test: In vitro inhibition of subtype HDAC1 (HDAC1 Inhibitor Drug Screening Kit, Biovision); type: biochemical; conditions: for inhibition at 1 µM / inhibition at 10 µM: read-out: % Inhibition towards HDAC1; for inhibitory activity against HDAC1 compared with MS-275: both concentrations 10 μM and 1 μM
Chain of HDAC1 (Q13547 whole entry): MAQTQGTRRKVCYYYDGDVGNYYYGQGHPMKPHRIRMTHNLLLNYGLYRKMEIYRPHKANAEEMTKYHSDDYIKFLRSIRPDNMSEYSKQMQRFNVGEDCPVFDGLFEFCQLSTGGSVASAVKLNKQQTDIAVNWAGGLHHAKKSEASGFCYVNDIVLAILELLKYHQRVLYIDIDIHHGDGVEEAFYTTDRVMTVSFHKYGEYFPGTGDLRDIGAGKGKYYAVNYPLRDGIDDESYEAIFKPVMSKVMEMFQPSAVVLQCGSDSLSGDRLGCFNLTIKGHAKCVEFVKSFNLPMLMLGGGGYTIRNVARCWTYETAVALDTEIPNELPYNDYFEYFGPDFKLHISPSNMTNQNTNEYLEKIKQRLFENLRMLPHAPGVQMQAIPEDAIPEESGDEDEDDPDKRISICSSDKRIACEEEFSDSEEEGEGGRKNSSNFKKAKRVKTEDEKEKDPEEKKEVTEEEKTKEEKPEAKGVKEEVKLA
Protocol: The in vitro inhibitory activities of the compounds towards the subtype HDAC1 were tested according to the instructions in the HDAC1 Inhibitor Drug Screening Kit (Biovision).
(1) The compounds to be tested were each individually prepared as 10 μM and 1 μM solutions and their inhibitory activities at these concentrations were tested.
Each dilution sample was placed in two wells and the enzyme inhibition IC50 of the compound was tested.

[7] = test system: Colo320 human colorectal cancer cell lines; test: In vitro anti-proliferative effect, CCK-8 method, Colo320; type: cell-based; conditions: Homo sapiens, COLO 320, Colo320 cell strain, CCK-8 method; for inhibition at 10 µM: compound at 10 μM; for inhibition at 100 µM: compound at 100 μM
How it was run: as §1

HDACs = test: In vitro inhibition of HDACs (HDAC Inhibitor Drug Screening Kit, Biovision K340-100); type: biochemical
Protocol: The in vitro inhibitory activities of the compounds towards HDACs were tested according to the instructions in the HDAC Inhibitor Drug Screening Kit (Biovision/Catalog #K340-100).
(1) The compounds to be tested were each individually prepared as 2 mM, 200 μM and 40 μM solutions and their inhibitory activities at these concentrations were tested.

[8] = test system: PC-3 human prostate cancer; test: In vitro anti-proliferative effect, CCK-8 method, PC-3; type: cell-based; conditions: Homo sapiens, PC-3 cell strain, CCK-8 method; for inhibition at 10 µM: compound at 10 μM; for inhibition at 100 µM: compound at 100 μM
How it was run: as §1

[9] = Maximum tolerance dose through intragastrical administration; type: in vivo; conditions: mice, administrated intragastrically
How it was run: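 ICR mice (8˜20 g, both sexes, 10 per group) fasted 6 h, then dosed once intragastrically at 0.3 ml/10 g. Physical signs and deaths recorded at 1, 2 and 4 h, then daily with body weight over 14 days; dead animals necropsied with pathology on suspicious organs.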

[10] = test system: Hep3B2.1-7 human liver cancer cells; test: In vitro anti-proliferative effect, CCK-8 method, Hep3B; type: cell-based; conditions: Homo sapiens, Hep3B cell strain, CCK-8 method; for inhibition at 10 µM: compound at 10 μM; for inhibition at 100 µM: compound at 100 μM
How it was run: as §1

SMILES | inhibition at 10 µM [1] [%] | inhibition at 100 µM [1] [%] | inhibition at 10 µM [2] [%] | inhibition at 100 µM [2] [%] | inhibition at 10 µM [3] [%] | inhibition at 100 µM [3] [%] | inhibition at 10 µM [4] [%] | inhibition at 100 µM [4] [%] | inhibition at 10 µM [5] [%] | inhibition at 100 µM [5] [%] | inhibition at 10 µM [6] [%] | inhibition at 100 µM [6] [%] | inhibition at 1 µM (HDAC1) [%] | inhibition at 10 µM (HDAC1) [%] | inhibition at 10 µM [7] [%] | inhibition at 100 µM [7] [%] | Inhibition percentage (%) towards HDACs (HDACs; 40 μM) [%] | Inhibition percentage (%) towards HDACs (HDACs; 200 μM) [%] | Inhibition percentage (%) towards HDACs (HDACs; 2 mM) [%] | inhibition at 10 µM [8] [%] | other results
COc1cc2ncnc(Nc3ccc(C(=O)Nc4cc(F)ccc4N)cc3)c2cc1OCCCN1CCOCC1 [Compound V-18, N-(2-amino-5-fluorophenyl)-4-[7-methoxy-6-(3-morpholinylpropoxy)quinazoline-4-amino]benzamide] | 0.9 | 23.9 | 9.5 | 79.1 | 39.9 | 82.3 | 58.5 | 87.5 | 76.6 | 95.7 | 22.7 | 81.4 | 59.8 | 80.8 | 7.7 | 56.3 | 30.4 | 56.8 | 66.0 | 45.2 | IC50 (HDAC1): 330 nM; inhibitory activity against HDAC1 compared with MS-275 (HDAC1): superior to that of MS-275; IC50 (HDACs): 1020 nM; inhibition at 100 µM [8]: 72.2%; maximum tolerance dose [9]: over 2000 mg/kg; inhibition at 10 µM [10]: 13.8%; inhibition at 100 µM [10]: 75.1%
CS(=O)(=O)CCNCc1ccc(-c2ccc3ncnc(Nc4ccc(C(=O)Nc5cc(F)ccc5N)cc4)c3c2)o1 [Compound V-20, N-(2-amino-5-fluorophenyl)-4-[6-(5-((2-(methylsulfonyl)ethylamino)methyl)furyl)quinazoline-4-amino]benzamide] | -1.7 | 52 | 0 | 41.3 | 44.4 | 85.7 | 64.3 | 92.9 | 84.8 | 89.4 | 17 | 57.8 | 53.5 | 77.4 | 6.5 | 58.8 | 28.2 | 56.9 | 67.5 | 48.1 | inhibitory activity against HDAC1 compared with MS-275 (HDAC1): superior to that of MS-275; IC50 (HDACs): 1220 nM; inhibition at 100 µM [8]: 75.5%; maximum tolerance dose [9]: over 5000 mg/kg; inhibition at 10 µM [10]: 23.5%; inhibition at 100 µM [10]: 60%
COC(=O)Cc1ccc2ncnc(Nc3ccc(C(=O)Nc4ccccc4N)cc3)c2c1 [Compound V-22, N-(2-aminophenyl)-4-(6-methoxycarbonylmethylquinazoline-4-amino)benzamide] | 12.3 | 39.4 | 21.8 | 69.9 | 42.3 | 91.8 | 60.9 | 83.4 | 83.1 | 88.2 | 18 | 81.4 | 23.1 | 63 | 5.4 | 40.8 | 19.9 | 47.5 | 84.2 | 44.6 | inhibition at 100 µM [8]: 69%; maximum tolerance dose [9]: over 2000 mg/kg; inhibition at 10 µM [10]: 38.3%; inhibition at 100 µM [10]: 69.2%
COc1cc2ncnc(Nc3ccc(C(=O)Nc4cc(-c5ccccc5)ccc4N)cc3)c2cc1OC [Compound V-24, N-[2-amino-5-(phenyl)phenyl]-4-(6,7-dimethoxyquinazoline-4-amino)benzamide] | 17.5 | 22.1 | 7.3 | 20.8 | 15.5 | 72.9 | -1.7 | 75.3 | 30.7 | 91.4 | -10.8 | 24.5 | 51 | 73.3 | -1.7 | 16.5 | 24.2 | 55.2 | 76.1 | 13.1 | inhibitory activity against HDAC1 compared with MS-275 (HDAC1): superior to that of MS-275; inhibition at 100 µM [8]: 63.7%; maximum tolerance dose [9]: over 2000 mg/kg; inhibition at 10 µM [10]: 14.3%; inhibition at 100 µM [10]: 69.5%
COc1cc2ncnc(Nc3ccc(C(=O)Nc4cc(-c5ccco5)ccc4N)cc3)c2cc1OC [Compound V-25, N-[2-amino-5-(2-furyl)phenyl]-4-(6,7-dimethoxyquinazoline-4-amino)benzamide] | 20.8 | 39.5 | 2.4 | 12 | 18.1 | 60 | 34.1 | 64.8 | 12.5 | 83.3 | 30.8 | 61.2 | 24.2 | 53.8 | 7.9 | 14.1 | 20.5 | 55.2 | 72.8 | -9.4 | inhibition at 100 µM [8]: 22.1%; maximum tolerance dose [9]: over 5000 mg/kg; inhibition at 10 µM [10]: 11.3%; inhibition at 100 µM [10]: 40.6%

From patent US9034886B2, “4-aminoquinazoline derivatives and uses thereof” (Shanghai Institute of Pharmaceutical Industry, priority 2011, dated 2015)
